Source: ChEMBL document CHEMBL3576823, “Cystargolides, 20S Proteasome Inhibitors Isolated from Kitasatospora cystarginea” (J Nat Prod, 2015)
Each block holds one molecule with its values, some of them ahead of it.

Key:
[1] = target: T1, Proteasome Macropain subunit MB1 (Homo sapiens, UniProt P28074); assay: Inhibition of chymotrypsin-like activity of human erythrocyte-derived 20S proteasome using Suc-LLVY-AMC as substrate preincubated for 10 mins followed by substrate addition measured every 15 secs for 30 mins by fluorescence assay
T1 sequence (P28074 whole entry): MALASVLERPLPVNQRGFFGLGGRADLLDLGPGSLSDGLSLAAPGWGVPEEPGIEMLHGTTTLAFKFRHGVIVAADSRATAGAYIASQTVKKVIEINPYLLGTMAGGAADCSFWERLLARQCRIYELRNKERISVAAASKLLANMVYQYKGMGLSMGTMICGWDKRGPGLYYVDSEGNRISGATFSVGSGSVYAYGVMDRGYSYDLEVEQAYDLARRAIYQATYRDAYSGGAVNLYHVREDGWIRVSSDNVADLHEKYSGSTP

[2] = Inhibition of chymotrypsin-like activity of rabbit 20S proteasome using Suc-LLVY-AMC as substrate after 2 hrs by fluorescence assay; parameters: species or system Oryctolagus cuniculus
[3] = Inhibition of proteasome (unknown origin); parameters: species or system Homo sapiens

IC50 [1]: 360 nM
Structure (SMILES): CC[C@H](C)[C@H](NC(=O)[C@@H](NC(=O)C1OC(=O)C1C(C)C)C(C)C)C(=O)O (stereo not given in full)

Structure (SMILES): CC[C@H](C)[C@@H]1C(=O)O[C@H]1C(=O)N[C@H]1C[C@H]1C[C@H](NC(=O)[C@H](C)N)C(=O)O [BELACTOSIN A]
IC50 [2]: 210 nM

IC50 [2]: 210 nM
Structure (SMILES): CC[C@H](C)[C@@H]1C(=O)O[C@H]1C(=O)NCCC[C@H](NC(=O)[C@H](C)N)C(=O)O [BELACTOSIN C]

Ki [3]: 0.6 nM
Structure (SMILES): CC(C)C[C@H](NC(=O)[C@H](Cc1ccccc1)NC(=O)c1cnccn1)B(O)O [BORTEZOMIB]

IC50 [3]: 5 nM
Structure (SMILES): CC(C)C[C@H](NC(=O)[C@H](CCc1ccccc1)NC(=O)CN1CCOCC1)C(=O)N[C@@H](Cc1ccccc1)C(=O)N[C@@H](CC(C)C)C(=O)[C@@]1(C)CO1 [CARFILZOMIB]
